Read-outs that look alike come from different tables or passages of the source. Each block holds one compound with its values, some of them ahead of it.
What was measured:
Assay in all cases: biochemical
Design in all cases: species or system human cell line lysate
[1] = target: Casein kinase II subunit alpha ; CSNK2A1 ; P68400 (Homo sapiens, UniProt P68400)
[2] = target: Isoform 2 of Serine/threonine-protein kinase TAO2 ; TAOK2 ; Q9UL54-2 (Homo sapiens, UniProt Q9UL54)
[3] = target: Serine/threonine-protein kinase Chk2 ; CHEK2 ; O96017 (Homo sapiens, UniProt O96017)
[4] = target: Casein kinase I isoform epsilon ; CSNK1E ; P49674 (Homo sapiens, UniProt P49674)
[5] = target: Calcium/calmodulin-dependent protein kinase type II subunit beta ; CAMK2B ; Q13554 (Homo sapiens, UniProt Q13554)
[6] = target: Phosphatidylinositol 4,5-bisphosphate 3-kinase catalytic subunit beta ; PIK3CB ; P42338 (Homo sapiens, UniProt P42338)
[7] = target: Isoform GRK6B of G protein-coupled receptor kinase 6 ; GRK6 ; P43250-2 (Homo sapiens, UniProt P43250)
[8] = target: Tyrosine-protein kinase JAK1 ; JAK1 ; P23458 (Homo sapiens, UniProt P23458)
[9] = target: Serine/threonine-protein kinase D1 ; PRKD1 ; Q15139 (Homo sapiens, UniProt Q15139)
[10] = target: Glycosaminoglycan xylosylkinase ; FAM20B ; O75063 (Homo sapiens, UniProt O75063)
[11] = target: Maternal embryonic leucine zipper kinase ; MELK ; Q14680 (Homo sapiens, UniProt Q14680)
[12] = target: Isoform 2 of Proto-oncogene tyrosine-protein kinase Src ; SRC ; P12931-2 (Homo sapiens, UniProt P12931)
[13] = target: Protein kinase C delta type ; PRKCD ; Q05655 (Homo sapiens, UniProt Q05655)
[14] = target: Mitogen-activated protein kinase kinase kinase 6 ; MAP3K6 ; O95382 (Homo sapiens, UniProt O95382)
[15] = target: Interferon-induced, double-stranded RNA-activated protein kinase ; EIF2AK2 ; P19525 (Homo sapiens, UniProt P19525)
[16] = target: Serine/threonine-protein kinase pim-2 ; PIM2 ; Q9P1W9 (Homo sapiens, UniProt Q9P1W9)
[17] = target: Bone morphogenetic protein receptor type-1A ; BMPR1A ; P36894 (Homo sapiens, UniProt P36894)
[18] = target: Dual specificity protein kinase CLK2 ; CLK2 ; P49760 (Homo sapiens, UniProt P49760)
[19] = target: Mitogen-activated protein kinase kinase kinase kinase 1 ; MAP4K1 ; Q92918 (Homo sapiens, UniProt Q92918)
[20] = target: Serine/threonine-protein kinase/endoribonuclease IRE1 ; ERN1 ; O75460 (Homo sapiens, UniProt O75460)
[21] = target: Phosphatidylinositol 4-phosphate 3-kinase C2 domain-containing subunit ; PIK3C2B ; O00750 (Homo sapiens, UniProt O00750)
[22] = target: Serine/threonine-protein kinase Sgk3 ; SGK3 ; Q96BR1 (Homo sapiens, UniProt Q96BR1)
[23] = target: Serine/threonine-protein kinase MARK2 ; MARK2 ; Q7KZI7 (Homo sapiens, UniProt Q7KZI7)
[24] = read-out: BAY-1251152 (10 µM) / %Intensity relative to DMSO
[25] = read-out: BAY-1143572 (10 µM) / %Intensity relative to DMSO

Sequence of Mitogen-activated protein kinase kinase kinase 6 ; MAP3K6 ; O95382 (O95382 whole entry): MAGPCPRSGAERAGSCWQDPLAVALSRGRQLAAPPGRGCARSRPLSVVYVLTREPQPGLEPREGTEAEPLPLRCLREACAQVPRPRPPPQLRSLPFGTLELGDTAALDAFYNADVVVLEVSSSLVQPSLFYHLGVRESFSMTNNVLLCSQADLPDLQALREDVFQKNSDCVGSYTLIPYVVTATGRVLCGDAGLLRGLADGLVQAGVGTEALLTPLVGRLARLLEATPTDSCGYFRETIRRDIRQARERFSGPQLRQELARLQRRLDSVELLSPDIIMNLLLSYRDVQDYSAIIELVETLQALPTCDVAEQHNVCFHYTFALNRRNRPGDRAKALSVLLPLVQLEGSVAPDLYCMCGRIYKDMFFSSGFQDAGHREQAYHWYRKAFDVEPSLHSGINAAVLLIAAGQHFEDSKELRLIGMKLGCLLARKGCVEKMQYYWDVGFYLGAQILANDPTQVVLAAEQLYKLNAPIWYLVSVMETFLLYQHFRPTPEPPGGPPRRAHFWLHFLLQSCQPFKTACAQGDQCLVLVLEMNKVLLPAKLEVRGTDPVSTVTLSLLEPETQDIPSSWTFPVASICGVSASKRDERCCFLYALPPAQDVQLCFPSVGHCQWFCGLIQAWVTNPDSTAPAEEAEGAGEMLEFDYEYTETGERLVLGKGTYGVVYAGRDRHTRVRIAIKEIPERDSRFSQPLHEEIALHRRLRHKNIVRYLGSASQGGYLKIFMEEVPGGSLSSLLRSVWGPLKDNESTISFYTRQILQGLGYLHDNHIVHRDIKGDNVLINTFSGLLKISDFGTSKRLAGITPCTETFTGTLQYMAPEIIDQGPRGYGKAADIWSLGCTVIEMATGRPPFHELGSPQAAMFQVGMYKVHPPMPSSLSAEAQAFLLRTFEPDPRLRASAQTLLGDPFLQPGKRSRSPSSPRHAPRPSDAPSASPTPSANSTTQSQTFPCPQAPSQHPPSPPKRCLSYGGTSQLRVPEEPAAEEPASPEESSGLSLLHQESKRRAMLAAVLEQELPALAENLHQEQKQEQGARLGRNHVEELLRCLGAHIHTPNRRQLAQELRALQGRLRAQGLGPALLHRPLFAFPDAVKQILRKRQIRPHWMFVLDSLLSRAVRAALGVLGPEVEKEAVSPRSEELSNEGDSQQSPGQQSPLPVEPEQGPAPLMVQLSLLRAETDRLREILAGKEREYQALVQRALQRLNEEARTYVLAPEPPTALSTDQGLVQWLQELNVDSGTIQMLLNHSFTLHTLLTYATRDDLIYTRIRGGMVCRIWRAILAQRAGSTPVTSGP
Sequence of Casein kinase I isoform epsilon ; CSNK1E ; P49674 (P49674 whole entry, canonical isoform): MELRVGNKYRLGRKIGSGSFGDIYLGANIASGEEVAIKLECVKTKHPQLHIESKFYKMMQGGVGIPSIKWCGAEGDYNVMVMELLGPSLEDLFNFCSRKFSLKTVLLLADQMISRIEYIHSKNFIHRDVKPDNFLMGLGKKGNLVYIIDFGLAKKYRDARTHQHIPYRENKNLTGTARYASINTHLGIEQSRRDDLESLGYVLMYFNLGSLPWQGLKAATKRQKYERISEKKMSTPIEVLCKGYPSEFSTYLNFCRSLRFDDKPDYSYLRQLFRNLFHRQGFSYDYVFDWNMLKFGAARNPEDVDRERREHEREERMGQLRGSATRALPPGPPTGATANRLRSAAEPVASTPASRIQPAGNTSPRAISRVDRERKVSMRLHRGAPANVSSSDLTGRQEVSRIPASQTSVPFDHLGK
Sequence of Isoform 2 of Serine/threonine-protein kinase TAO2 ; TAOK2 ; Q9UL54-2 (Q9UL54 whole entry, canonical isoform, one chain of several): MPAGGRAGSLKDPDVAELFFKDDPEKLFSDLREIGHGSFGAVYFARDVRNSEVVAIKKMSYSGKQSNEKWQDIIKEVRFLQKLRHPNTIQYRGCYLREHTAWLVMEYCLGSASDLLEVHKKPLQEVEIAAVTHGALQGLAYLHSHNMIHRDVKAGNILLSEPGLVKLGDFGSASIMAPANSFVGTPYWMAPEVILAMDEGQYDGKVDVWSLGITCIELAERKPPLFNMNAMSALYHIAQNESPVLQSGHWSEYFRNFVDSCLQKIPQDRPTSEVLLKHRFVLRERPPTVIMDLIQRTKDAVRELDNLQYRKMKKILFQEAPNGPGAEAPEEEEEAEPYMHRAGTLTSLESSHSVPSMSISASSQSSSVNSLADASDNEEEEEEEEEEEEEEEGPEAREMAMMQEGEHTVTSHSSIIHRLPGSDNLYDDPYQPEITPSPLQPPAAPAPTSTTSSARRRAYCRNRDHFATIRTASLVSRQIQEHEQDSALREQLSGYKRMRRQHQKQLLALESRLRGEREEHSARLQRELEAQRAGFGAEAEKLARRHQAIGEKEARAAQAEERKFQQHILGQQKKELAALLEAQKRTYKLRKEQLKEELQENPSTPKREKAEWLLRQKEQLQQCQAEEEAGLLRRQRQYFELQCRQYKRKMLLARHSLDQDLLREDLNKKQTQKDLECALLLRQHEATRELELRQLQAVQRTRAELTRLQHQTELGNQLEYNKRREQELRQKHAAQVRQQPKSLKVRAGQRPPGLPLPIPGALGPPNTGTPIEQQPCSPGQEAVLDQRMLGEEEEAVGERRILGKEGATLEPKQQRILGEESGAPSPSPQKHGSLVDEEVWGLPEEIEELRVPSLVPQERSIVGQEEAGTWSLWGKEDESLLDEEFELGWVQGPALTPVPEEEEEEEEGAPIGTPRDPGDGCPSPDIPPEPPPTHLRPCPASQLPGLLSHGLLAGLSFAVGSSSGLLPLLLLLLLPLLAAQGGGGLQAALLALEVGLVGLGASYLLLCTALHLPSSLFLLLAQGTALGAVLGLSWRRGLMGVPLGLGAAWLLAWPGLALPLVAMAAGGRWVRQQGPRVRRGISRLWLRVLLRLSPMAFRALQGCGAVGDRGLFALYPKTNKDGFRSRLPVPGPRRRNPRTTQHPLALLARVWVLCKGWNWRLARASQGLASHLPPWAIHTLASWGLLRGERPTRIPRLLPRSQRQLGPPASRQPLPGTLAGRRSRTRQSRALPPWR
Sequence of Dual specificity protein kinase CLK2 ; CLK2 ; P49760 (P49760 whole entry): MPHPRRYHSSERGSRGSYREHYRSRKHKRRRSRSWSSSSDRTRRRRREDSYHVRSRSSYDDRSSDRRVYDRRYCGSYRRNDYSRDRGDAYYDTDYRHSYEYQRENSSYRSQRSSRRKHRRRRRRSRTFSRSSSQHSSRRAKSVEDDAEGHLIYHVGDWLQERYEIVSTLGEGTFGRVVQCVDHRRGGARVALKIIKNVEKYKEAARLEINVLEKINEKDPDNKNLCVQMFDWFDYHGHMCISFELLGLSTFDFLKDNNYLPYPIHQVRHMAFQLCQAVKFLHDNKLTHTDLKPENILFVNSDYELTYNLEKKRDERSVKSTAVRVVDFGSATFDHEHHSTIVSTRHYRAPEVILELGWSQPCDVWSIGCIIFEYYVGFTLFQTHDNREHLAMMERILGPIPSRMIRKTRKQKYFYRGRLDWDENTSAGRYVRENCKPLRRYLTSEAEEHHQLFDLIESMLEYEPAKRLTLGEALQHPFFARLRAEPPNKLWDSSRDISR
Sequence of Serine/threonine-protein kinase Chk2 ; CHEK2 ; O96017 (O96017 whole entry, canonical isoform, one chain of several): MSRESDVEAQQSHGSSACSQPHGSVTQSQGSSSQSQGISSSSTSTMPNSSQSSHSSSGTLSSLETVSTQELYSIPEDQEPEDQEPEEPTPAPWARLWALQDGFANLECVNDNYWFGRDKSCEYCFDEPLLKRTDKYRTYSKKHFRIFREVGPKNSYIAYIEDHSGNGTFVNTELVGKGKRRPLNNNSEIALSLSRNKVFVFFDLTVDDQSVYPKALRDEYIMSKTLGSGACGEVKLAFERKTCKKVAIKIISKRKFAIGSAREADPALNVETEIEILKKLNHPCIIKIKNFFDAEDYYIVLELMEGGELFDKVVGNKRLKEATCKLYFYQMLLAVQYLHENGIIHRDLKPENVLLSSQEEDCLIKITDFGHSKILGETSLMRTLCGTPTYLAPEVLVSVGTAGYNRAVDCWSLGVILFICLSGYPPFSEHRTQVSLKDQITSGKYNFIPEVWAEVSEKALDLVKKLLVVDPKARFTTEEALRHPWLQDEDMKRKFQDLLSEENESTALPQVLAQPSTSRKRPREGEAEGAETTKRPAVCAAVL
Sequence of Serine/threonine-protein kinase/endoribonuclease IRE1 ; ERN1 ; O75460 (O75460 whole entry, the tested form may be a part, one chain of several): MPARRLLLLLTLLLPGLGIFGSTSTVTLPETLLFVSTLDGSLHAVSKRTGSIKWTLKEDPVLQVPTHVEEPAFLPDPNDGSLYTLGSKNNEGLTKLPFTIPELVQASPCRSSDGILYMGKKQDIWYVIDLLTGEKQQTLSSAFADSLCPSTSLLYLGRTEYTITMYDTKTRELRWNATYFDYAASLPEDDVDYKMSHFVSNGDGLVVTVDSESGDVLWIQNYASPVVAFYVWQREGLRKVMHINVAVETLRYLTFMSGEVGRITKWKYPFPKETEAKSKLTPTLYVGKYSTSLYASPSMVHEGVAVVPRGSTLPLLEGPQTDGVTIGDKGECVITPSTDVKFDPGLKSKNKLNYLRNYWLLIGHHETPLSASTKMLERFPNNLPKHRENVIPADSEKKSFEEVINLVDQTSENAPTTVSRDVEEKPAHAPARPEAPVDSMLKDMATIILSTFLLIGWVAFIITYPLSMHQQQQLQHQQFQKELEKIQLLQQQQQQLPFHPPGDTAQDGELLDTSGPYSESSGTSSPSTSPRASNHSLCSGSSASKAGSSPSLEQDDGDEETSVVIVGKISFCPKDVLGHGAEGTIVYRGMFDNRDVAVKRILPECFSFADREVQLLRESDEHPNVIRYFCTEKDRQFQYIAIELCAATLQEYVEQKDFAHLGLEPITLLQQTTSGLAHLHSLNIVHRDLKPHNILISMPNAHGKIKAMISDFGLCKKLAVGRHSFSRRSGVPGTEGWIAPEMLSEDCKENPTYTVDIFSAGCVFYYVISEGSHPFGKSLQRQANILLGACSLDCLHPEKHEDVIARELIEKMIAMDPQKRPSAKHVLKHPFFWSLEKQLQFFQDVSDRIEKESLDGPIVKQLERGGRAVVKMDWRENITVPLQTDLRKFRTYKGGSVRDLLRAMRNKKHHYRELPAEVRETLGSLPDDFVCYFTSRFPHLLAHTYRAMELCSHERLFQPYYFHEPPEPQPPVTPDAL

remaining activity at 10 µM [1, 24]: 105%
remaining activity at 10 µM [2, 24]: 76.6%
remaining activity at 10 µM [3, 24]: 106%
remaining activity at 10 µM [4, 24]: 101%
remaining activity at 10 µM [5, 24]: 98.2%
remaining activity at 10 µM [6, 24]: 57.7%
remaining activity at 10 µM [7, 24]: 111%
remaining activity at 10 µM [8, 24]: 110%
remaining activity at 10 µM [9, 24]: 154%
remaining activity at 10 µM [10, 24]: 123%
remaining activity at 10 µM [11, 24]: 110%
remaining activity at 10 µM [12, 24]: 112%
remaining activity at 10 µM [13, 24]: 97.3%
remaining activity at 10 µM [14, 24]: 103%
remaining activity at 10 µM [15, 24]: 74.4%
remaining activity at 10 µM [16, 24]: 102%
remaining activity at 10 µM [17, 24]: 122%
remaining activity at 10 µM [18, 24]: 112%
remaining activity at 10 µM [19, 24]: 71.6%
remaining activity at 10 µM [20, 24]: 131%
remaining activity at 10 µM [21, 24]: 84.6%
remaining activity at 10 µM [22, 24]: 139%
remaining activity at 10 µM [23, 24]: 103%
Structure (SMILES): COc1cc(F)ccc1-c1cc(Nc2cc(CS(C)(=N)=O)ccn2)ncc1F (stereo not shown) [BAY-1251152]

remaining activity at 10 µM [1, 25]: 110%
remaining activity at 10 µM [2, 25]: 95.8%
remaining activity at 10 µM [3, 25]: 116%
remaining activity at 10 µM [4, 25]: 111%
remaining activity at 10 µM [5, 25]: 105%
remaining activity at 10 µM [6, 25]: 83.7%
remaining activity at 10 µM [7, 25]: 137%
remaining activity at 10 µM [8, 25]: 104%
remaining activity at 10 µM [9, 25]: 155%
remaining activity at 10 µM [10, 25]: 141%
remaining activity at 10 µM [11, 25]: 116%
remaining activity at 10 µM [12, 25]: 102%
remaining activity at 10 µM [13, 25]: 97.1%
remaining activity at 10 µM [14, 25]: 103%
remaining activity at 10 µM [15, 25]: 80%
remaining activity at 10 µM [16, 25]: 132%
remaining activity at 10 µM [17, 25]: 164%
remaining activity at 10 µM [18, 25]: 139%
remaining activity at 10 µM [19, 25]: 101%
remaining activity at 10 µM [20, 25]: 133%
remaining activity at 10 µM [21, 25]: 79.7%
remaining activity at 10 µM [22, 25]: 148%
remaining activity at 10 µM [23, 25]: 110%
Structure (SMILES): COc1cc(F)ccc1-c1ncnc(Nc2cccc(C[S@](C)(=N)=O)c2)n1 [BAY-1143572]

Reference: publication doi:10.1101/2024.08.13.607785v1 (biorxiv, 2024)
